Data: patent US9150568B2, “Compositions and methods for modulating FXR” (NOVARTIS AG, priority 2010, dated 2015)

target: T1, human Farnesoid X Receptor (FXR) ligand binding domain (GST-FXR LBD) (Homo sapiens, UniProt Q96RI1); test: Human GST-FXR LBD co-activator interaction assay (HTRF); assay type: biochemical; details: GST-FXR LBD / biotin-SRC-1 peptide FRET; response relative to GW4064; read-out: FXR Co-activator interaction assay (EC50)
T1 construct: purchased Invitrogen
T1 sequence (Q96RI1 193-472 isoform Q96RI1-2): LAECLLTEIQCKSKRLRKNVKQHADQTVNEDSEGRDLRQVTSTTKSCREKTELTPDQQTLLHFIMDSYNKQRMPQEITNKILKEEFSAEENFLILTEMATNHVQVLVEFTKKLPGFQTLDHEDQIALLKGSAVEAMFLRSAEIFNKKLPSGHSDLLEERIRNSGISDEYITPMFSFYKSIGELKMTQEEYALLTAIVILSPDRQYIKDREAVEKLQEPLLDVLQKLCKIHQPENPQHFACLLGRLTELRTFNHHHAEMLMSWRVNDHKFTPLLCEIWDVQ
Source text: Human GST-FXR LBD Co-activator interaction Assay. The FXR HTRF assay is a biochemical assay measuring the interaction between FXR and a coactivator protein (SRC1). The ligand-induced interaction with a coactivator protein is a critical step in transcriptional activation by FXR. Thus, this is an assay designed to measure FXR agonist activity of compounds.
The ligand-dependent interaction between GST-FXR LBD and a peptide derived from Steroid Receptor Coactivator-1 (SRC-1) was monitored by Fluorescence Resonance Energy Transfer (FRET). […] Test compounds (in DMSO solution) and detection reagents (anti-GST-Cryptate labeled antibody and Streptavidin-XL665 conjugate; CisBio) were added in assay buffer containing 50 mM KF.
A negative control (without Streptavidin-XL665) was run with each assay and represented the background fluorescence. A reference FXR agonist, GW4064, was included in each experiment as positive control. The efficacy of each test compound was compared to that of GW4064. At each concentration, the relative activity of the test compound was expressed as Response %=(Rsample−RDMSO)/(Rpositive−RDMSO), where Rsample is the HTRF response (expressed in Delta F %) for the test compound, Rpositive is the maximal response for GW4064 at saturating concentrations, and RDMSO is the response for DMSO control. The EC50 values were calculated using GraphPad Prism (GraphPad Software) using non-linear regression curve fit (log(agonist) vs. response—variable slope (four parameters)).

Compound	EC50 [nM]
O=C(O)c1cc(F)c2nc(N3C4CC[C@H]3C[C@H](OCc3c(C5CC5C(F)(F)F)noc3C3CC3)C4)sc2c1 (mixture of isomers) [Example 11]	30
O=C(O)c1cc(F)c2nc(N3C4CC[C@H]3CC(OCc3c(-c5ccccc5C(F)(F)F)noc3C3CC3)C4)sc2c1 (stereo in doubt) [Example 1-2B, 2-[3-({5-cyclopropyl-3-[2-(trifluoromethyl)phenyl]-1,2-oxazol-4-yl}methoxy)-8-azabicyclo[3.2.1]octan-8-yl]-4-fluoro-1,3-benzothiazole-6-carboxylic acid]	0.25
O=C(O)c1ccc2nc(N3C4CC[C@H]3C[C@H](OCc3c(C5CCCCC5C(F)(F)F)noc3C3CC3)C4)sc2c1 (stereo in doubt) [Example 7B, 2-(3-((5-cyclopropyl-3-((trans)-2-(trifluoromethyl)cyclohexyl)isoxazol-4-yl)methoxy)-8-azabicyclo[3.2.1]octan-8-yl)benzo[d]thiazole-6-carboxylic acid]	16
COC(=O)c1ccc(N2C3CC[C@H]2CC(OCc2c(-c4ccccc4OC(F)(F)F)noc2C2CC2)C3)c(F)c1 (stereo in doubt) [Example 23A, Methyl 4-(3-((5-cyclopropyl-3-(2-(trifluoromethoxy)phenyl)isoxazol-4-yl)methoxy)-8-azabicyclo[3.2.1]octan-8-yl)-3-fluorobenzoate]	6
O=C(O)c1ccc(N2C3CC[C@H]2CC(OCc2c(-c4ccccc4OC(F)(F)F)noc2C2CC2)C3)c(F)c1 (stereo in doubt) [Example 23B, 4-(3-((5-cyclopropyl-3-(2-(trifluoromethoxy)phenyl)isoxazol-4-yl)methoxy)-8-azabicyclo[3.2.1]octan-8-yl)-3-fluorobenzoic acid]	4
Fc1cc(-c2nn[nH]n2)ccc1N1C2CC[C@H]1CC(OCc1c(-c3ccccc3OC(F)F)noc1C1CC1)C2 (stereo in doubt) [Example 26B, 5-cyclopropyl-3-(2-(difluoromethoxy)phenyl)-4-(((8-(2-fluoro-4-(2H-tetrazol-5-yl)phenyl)-8-azabicyclo[3.2.1]octan-3-yl)oxy)methyl)isoxazole]	0.3
O=C(O)c1cn2nc(N3C4CC[C@H]3CC(OCc3c(-c5ccccc5OC(F)(F)F)noc3C3CC3)C4)ccc2n1 (stereo in doubt) [Example 31-1, 6-(3-((5-Cyclopropyl-3-(2-(trifluoromethoxy)phenyl)isoxazol-4-yl)methoxy)-8-azabicyclo[3.2.1]octan-8-yl)imidazo[1,2-b]pyridazine-2-carboxylic acid]	12
O=C(O)c1cnc2cc(N3C4CC[C@H]3CC(OCc3c(-c5ccccc5OC(F)(F)F)noc3C3CC3)C4)ccn12 (stereo in doubt) [Example 32-1, 7-(3-((5-cyclopropyl-3-(2-(trifluoromethoxy)phenyl)isoxazol-4-yl)methoxy)-8-azabicyclo[3.2.1]octan-8-yl)imidazo[1,2-a]pyridine-3-carboxylic acid]	3
COC(=O)c1cc(F)c2nc(N3C4CC[C@H]3CC(OCc3c(-c5ccccc5OC(F)(F)F)noc3C3CC3)C4)sc2c1 (stereo partly drawn) [Example 1-1A, Methyl 2-(3-((5-cyclopropyl-3-(2-(trifluoromethoxy)phenyl)isoxazol-4-yl)methoxy)-8-azabicyclo[3.2.1]octan-8-yl)-4-fluorobenzo[d]thiazole-6-carboxylate]	14
COC(=O)c1cc(F)c2nc(N3C4CC[C@H]3CC(OCc3c(-c5ccccc5C(F)(F)F)noc3C3CC3)C4)sc2c1 (stereo partly drawn) [Example 1-2A]	28
COc1cc(C(=O)O)cc2sc(N3C4CC[C@H]3CC(OCc3c(-c5ccccc5OC(F)(F)F)noc3C3CC3)C4)nc12 (stereo partly drawn) [Example 2-1B, 2-(3-((5-cyclopropyl-3-(2-(trifluoromethoxy)phenyl)isoxazol-4-yl)methoxy)-8-azabicyclo[3.2.1]octan-8-yl)-4-methoxybenzo[d]thiazole-6-carboxylic acid]	0.17
COc1cc(C(=O)O)cc2sc(N3C4CC[C@H]3CC(OCc3c(-c5ccccc5C(F)(F)F)noc3C3CC3)C4)nc12 (stereo partly drawn) [Example 2-2B]	3
